# Experimental data: ChEMBL document CHEMBL6078648, “Prioritization of Eleven-Nineteen-Leukemia Inhibitors as Orally Available Drug Candidates for Acute Myeloid Leukemia” (J Med Chem, 2024)
# Active and inactive are the calls of the source. The calls are words filed in the database; no cut-off is given here.
# Columns and labels:
# [1] = target: T1, Protein ENL (Homo sapiens) (UniProt Q03111); assay: Inhibition of ENL YEATS domain (unknown origin) (1 to 148 residues) preincubated with compound for 1 hr followed by alpha-bead addition and measured after 30 mins under dark condition by Alphascreen assay; details: time 90.0 min
# T1 sequence (whole entry): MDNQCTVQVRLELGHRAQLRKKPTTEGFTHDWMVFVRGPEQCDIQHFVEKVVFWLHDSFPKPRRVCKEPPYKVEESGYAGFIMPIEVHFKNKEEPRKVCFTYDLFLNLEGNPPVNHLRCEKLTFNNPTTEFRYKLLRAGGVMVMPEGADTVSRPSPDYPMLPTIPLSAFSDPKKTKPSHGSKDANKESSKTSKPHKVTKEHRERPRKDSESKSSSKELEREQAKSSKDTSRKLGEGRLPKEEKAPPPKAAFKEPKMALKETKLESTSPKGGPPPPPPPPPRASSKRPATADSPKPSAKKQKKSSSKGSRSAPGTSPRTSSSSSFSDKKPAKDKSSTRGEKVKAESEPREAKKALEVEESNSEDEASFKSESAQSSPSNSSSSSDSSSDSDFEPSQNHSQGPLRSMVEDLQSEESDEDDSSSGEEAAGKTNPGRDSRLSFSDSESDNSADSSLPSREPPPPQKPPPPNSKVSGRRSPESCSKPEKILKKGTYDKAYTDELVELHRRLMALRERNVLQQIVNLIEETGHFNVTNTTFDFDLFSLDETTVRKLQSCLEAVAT
# MOLM-13 [2] = assay: Cytotoxicity against human MOLM-13 cells assessed as cell viability upto 100 uM incubated for 72 hrs by CCK-8 assay; format: functional, cell-based
# [3] = Metabolic stability in human plasma assessed as parent compound remaining measured after 2 hrs by HPLC-MS/MS analysis; format: ADME, cell-free
# MOLM-13 [4] = assay: Cytotoxicity against human MOLM-13 cells assessed as cell viability incubated for 8 days by CCK-8 assay; format: functional; details: for Activity: time 8.0 day; for CC50: MOLM-13, 192 h, time 8 day
# [5] = Metabolic stability in human plasma assessed as parent compound remaining measured after 1 hrs by HPLC-MS/MS analysis; format: ADME, cell-free
# MV4-11 [6] = assay: Cytotoxicity against human MV4-11 cells assessed as cell viability incubated for 8 days by CCK-8 assay; format: functional; details: for Activity: time 8.0 day; for CC50: MV4-11, 192 h, time 8 day
# MV4-11 [7] = assay: Cytotoxicity against human MV4-11 cells assessed as cell viability upto 100 uM incubated for 72 hrs by CCK-8 assay; format: functional, cell-based
# [8] = Metabolic stability in mouse liver microsome assessed as half life; format: ADME; details: liver microsomes
# [9] = target: T1, Protein ENL (Homo sapiens); assay: Binding affinity to ENL YEATS domain (unknown origin) expressed in HEK293 cells incubated for 2 hrs by NanoBRET assay; format: cell-based
# [10] = target: T1, Protein ENL (Homo sapiens); assay: Binding affinity to ENL YEATS domain (unknown origin) (1 to 148 residues) expressed in HEK293 cells assessed as […] incubated for 2 hrs by NanoBRET assay; format: cell-based; details: dose <= 100.0 µM
# Jurkat [11] = assay: Cytotoxicity against human Jurkat cells assessed as reduction in cell viability at 10 uM incubated for 8 days by CCK-8 assay; format: functional, cell-based; details: time 8.0 day
# MOLM-13 [12] = assay: Antitumor activity against human MOLM-13 cells xenografted in NSG mouse assessed as reduction in tumor growth at 200 mg/kg, po qd measured after 13 days; format: functional, organism-based; details: time 13.0 day
# Jurkat [13] = assay: Antiproliferative activity against human Jurkat cells assessed as reduction in cell proliferation at 1 uM measured upto 2 weeks; format: functional, cell-based
# Jurkat [14] = assay: Cytotoxicity against human Jurkat cells assessed as cell viability incubated for 72 hrs by CCK-8 assay; format: functional
# Jurkat [15] = assay: Cytotoxicity against human Jurkat cells assessed as reduction in cell viability at 16 uM incubated for 8 days by CCK-8 assay; format: functional, cell-based; details: time 8.0 day
# MV4-11 [16] = assay: Downregulation of HOXA9 expression in human MV4-11 cells at 1 uM measured for 72 hrs by qRT-PCR analysis; format: functional, cell-based
# [17] = Toxicity in NSG mouse implanted with human MOLM-13 assessed as tolerability at 200 mg/kg, po qd measured every 2 to 3 days; format: organism-based; details: in vivo, time 2-3 day
# MOLM-13 [18] = assay: Induction of cell cycle arrest in human MOLM-13 cells assessed as increase in accumulation of cells at G1 phase at 1 to 10 uM incubated for 72 hrs by PI staining based flow cytometric analysis; format: functional; details: dose 1-10 µM
# [19] = Toxicity in NSG mouse implanted with human MOLM-13 assessed as animal survival at 400 mg/kg, po qd measured every 2 to 3 days and measured at day 15; format: organism-based; details: in vivo, 360 h, time 15 day
# MOLM-13 [20] = assay: Downregulation of MYB expression in human MOLM-13 cells at 1 uM measured for 72 hrs by qRT-PCR analysis; format: functional, cell-based
# HEK-293T [21] = assay: Cytotoxicity against HEK293T cells assessed as reduction in cell viability at 10 uM incubated for 8 days by CCK-8 assay; format: toxicity, cell-based; details: human, 192 h, time 8 day
# MV4-11 [22] = assay: Downregulation of MYC expression in human MV4-11 cells at 1 uM measured for 72 hrs by qRT-PCR analysis; format: functional, cell-based
# MOLM-13 [23] = assay: Downregulation of HOXA10 expression in human MOLM-13 cells at 1 uM measured for 72 hrs by qRT-PCR analysis; format: functional, cell-based
# [24] = Toxicity in NSG mouse implanted with human MOLM-13 assessed as body weight loss at 400 mg/kg, po qd measured every 2 to 3 days and measured at day 15; format: organism-based; details: in vivo, 360 h, time 15 day
# HEK-293T [25] = assay: Cytotoxicity against HEK293T cells assessed as reduction in cell viability at 16 uM incubated for 8 days by CCK-8 assay; format: toxicity, cell-based; details: human, 192 h, time 8 day
# MV4-11 [26] = assay: Downregulation of MYB expression in human MV4-11 cells at 1 uM measured for 72 hrs by qRT-PCR analysis; format: functional, cell-based
# MV4-11 [27] = assay: Downregulation of HOXA10 expression in human MV4-11 cells at 1 uM measured for 72 hrs by qRT-PCR analysis; format: functional, cell-based
# MOLM-13 [28] = assay: Antitumor activity against human MOLM-13 cells xenografted in NSG mouse assessed as reduction in tumor burden at 400 mg/kg, po qd measured after 13 days; format: functional, organism-based; details: time 13.0 day
# MOLM-13 [29] = assay: Downregulation of MEISI expression in human MOLM-13 cells at 1 uM measured for 72 hrs by qRT-PCR analysis; format: functional, cell-based
# MV4-11 [30] = assay: Induction of cell cycle arrest in human MV4-11 cells assessed as increase in accumulation of cells at G1 phase at 1 to 10 uM incubated for 72 hrs by PI staining based flow cytometric analysis; format: functional; details: dose 1-10 µM
# MV4-11 [31] = assay: Downregulation of MEISI expression in human MV4-11 cells at 1 uM measured for 72 hrs by qRT-PCR analysis; format: functional, cell-based
# [32] = Toxicity in NSG mouse implanted with human MOLM-13 assessed as body weight loss at 200 mg/kg, po qd measured every 2 to 3 days; format: organism-based; details: in vivo, time 2-3 day
# [33] = target: T1, Protein ENL (Homo sapiens); assay: Binding affinity to ENL in human MOLM-13 cells assessed as increase in protein thermal stabilization at 10 uM incubated for 3 to 6 hrs by CETSA analysis; format: cell-based; details: time 3-6 hrs
# MOLM-13 [34] = assay: Downregulation of HOXA9 expression in human MOLM-13 cells at 1 uM measured for 72 hrs by qRT-PCR analysis; format: functional, cell-based
# [35] = Half life in CD-1 mouse at 20 mg/kg, iv measured upto 24 hrs by HPLC-MS/MS analysis; format: ADME, organism-based; details: in vivo
# MOLM-13 [36] = assay: Downregulation of MYC expression in human MOLM-13 cells at 1 uM measured for 72 hrs by qRT-PCR analysis; format: functional, cell-based
# [37] = target: T1, Protein ENL (Homo sapiens); assay: Binding affinity to ENL in human MV4-11 cells assessed as increase in protein thermal stabilization at 10 uM incubated for 3 to 6 hrs by CETSA analysis; format: cell-based; details: time 3-6 hrs
# [38] = Cytotoxicity against human HEK293T cells assessed as cell viability incubated for 8 days by CCK-8 assay; format: toxicity, cell-based, HEK-293T; details: time 8 day
# Jurkat [39] = assay: Cytotoxicity against human Jurkat cells assessed as cell viability incubated for 8 days by CCK-8 assay; format: functional; details: 192 h, time 8 day
# [40] = Toxicity in NSG mouse implanted with human MOLM-13 assessed as body weight loss at 200 mg/kg, po qd; format: organism-based; details: in vivo
# MOLM-13 [41] = assay: Antitumor activity against human MOLM-13 cells xenografted in NSG mouse at 400 mg/kg, po qd measured from 10 to 15 days; format: functional, organism-based; details: time 10-15 day
# [42] = Toxicity in NSG mouse implanted with human MOLM-13 assessed as tolerability at 200 mg/kg, po qd; format: organism-based; details: in vivo
smiles,measurement,setting,value
O=C(NCc1ccc(CN2CCOCC2)cc1)c1ccc2nncn2c1,inhibition,[1],Active
O=C(NCc1cccc(CN2CCC2)c1)c1ccc2nncn2c1,Activity,MOLM-13 [2],Active
same,Stability,[3],94.94%
same,Activity,MOLM-13 [4],inactive
same,Stability,[5],> 60%
same,Activity,MV4-11 [6],inactive
same,Activity,MV4-11 [7],Active
O=C(NCc1ccc(CN2CCCCC2)cc1)c1ccc2nncn2c1,inhibition,[1],Active
O=C(NCc1ccc(CNc2ncc(F)cn2)cc1)c1ccc2nncn2c1,Activity,MOLM-13 [2],Active
same,Activity,MOLM-13 [4],inactive
same,Activity,MV4-11 [6],inactive
same,Activity,MV4-11 [7],Active
O=C(NC1CCC1)c1ccc2nc(-c3cccc(NS(=O)(=O)NCCN4CCCCC4)c3)cn2c1,half-life,[8],9.3 min
O=C(CCC1=[N+]2C(=Cc3ccc(-c4ccc[nH]4)n3[B-]2(F)F)C=C1)NCCCCSc1ccc(CNC(=O)c2ccc3nncn3c2)cc1,Activity,[9],Active
O=C(CCC1=[N+]2C(=Cc3ccc(-c4ccc[nH]4)n3[B-]2(F)F)C=C1)NCCCC(=O)Nc1cccc(-c2cn3cc(C(=O)NC4CCC4)ccc3n2)c1,Activity,[10],Dose-dependent-effect
CC(C)C1CCN1Cc1ccc(CNC(=O)c2ccc3nncn3c2)cc1 (stereo unspecified),Activity,Jurkat [11],Active
same,Activity,MOLM-13 [12],inactive
same,Activity,Jurkat [13],inactive
same,CC50,Jurkat [14],> 64 µM
same,Activity,Jurkat [15],Active
same,Activity,MOLM-13 [2],Active
same,Activity,MV4-11 [16],Active
same,Activity,[17],Non-toxic
same,Stability,[3],95.58%
same,Activity,MOLM-13 [18],Active
same,Activity,[19],Non-toxic
same,Activity,MOLM-13 [20],Active
same,Activity,HEK-293T [21],Non-toxic
same,Activity,MV4-11 [22],Active
same,Activity,MOLM-13 [23],Active
same,Activity,[24],Non-toxic
same,Activity,HEK-293T [25],Non-toxic
same,Activity,MV4-11 [26],Active
same,Activity,MV4-11 [27],Active
same,Stability,[5],> 60%
same,Activity,MOLM-13 [28],Active
same,Activity,MOLM-13 [29],Active
same,Activity,MV4-11 [30],Active
same,Activity,MV4-11 [31],Active
same,Activity,[32],Non-toxic
same,Activity,[33],Active
same,Activity,MOLM-13 [34],Active
same,Activity,MV4-11 [7],Active
same,half-life,[35],1.85 h
same,Activity,MOLM-13 [36],Active
same,Activity,[37],Active
CSc1ccc(CNC(=O)c2ccc3nncn3c2)cc1,Activity,MOLM-13 [2],Active
same,Activity,MOLM-13 [4],inactive
same,Activity,MV4-11 [6],inactive
same,Activity,MV4-11 [7],Active
O=C(Nc1cc2[nH]c(CN3CCC3C3CC3)cc2cn1)c1ccc2nncn2c1 (stereo unspecified),CC50 at 192 h,[38],> 64 µM
same,Activity,Jurkat [13],inactive
same,Stability,[5],> 60%
O=C(NCc1ccc(CN2CCC2)cc1)c1ccc2nncn2c1,inhibition,[1],Active
C[C@H]1CCCN1Cc1cc2cnc(NC(=O)c3ccc4nncn4c3)cc2[nH]1,CC50 at 192 h,[38],> 64 µM
same,Activity,Jurkat [13],inactive
same,Stability,[5],> 60%
CC(C)C1CCN1Cc1cc2cnc(NC(=O)c3ccc4nncn4c3)cc2[nH]1 (stereo unspecified),CC50 at 192 h,[38],> 64 µM
same,Activity,Jurkat [13],inactive
same,CC50,MOLM-13 [4],< 4 µM
same,CC50,MV4-11 [6],< 4 µM
same,CC50,Jurkat [39],> 64 µM
CC1CCN1Cc1ccc(CNC(=O)c2ccc3nncn3c2)cc1 (stereo unspecified),Activity,MOLM-13 [2],Active
same,Activity,MOLM-13 [4],inactive
same,Activity,MV4-11 [6],inactive
same,Activity,MV4-11 [7],Active
CC(C)[C@H]1CCN1Cc1cc2cnc(NC(=O)c3ccc4nncn4c3)cc2[nH]1,CC50 at 192 h,[38],> 64 µM
same,Activity,[40],Non-toxic
same,Activity,MOLM-13 [41],Active
same,Activity,Jurkat [13],inactive
same,Activity,MV4-11 [16],Active
same,Activity,[17],Non-toxic
same,Stability,[3],94.54%
same,CC50,MOLM-13 [4],1.25 µM
same,Activity,MOLM-13 [18],Active
same,Activity,MOLM-13 [20],Active
same,Activity,MV4-11 [22],Active
same,Activity,MOLM-13 [23],Active
same,Activity,MV4-11 [26],Active
same,Activity,MV4-11 [27],Active
same,CC50,MV4-11 [6],0.81 µM
same,Activity,MOLM-13 [29],Active
same,Activity,MV4-11 [30],Active
same,Activity,MV4-11 [31],Active
same,Activity,[32],Non-toxic
same,Activity,[33],Active
same,Activity,MOLM-13 [34],Active
same,CC50,Jurkat [39],> 64 µM
same,Activity,[42],Non-toxic
same,Activity,MOLM-13 [36],Active
same,Activity,[37],Active
